Results reported in patent US7973024B2, “24-sulfoximine vitamin D3 compounds” (Cyctochroma Inc., priority 2002, dated 2011).

Columns and labels:
Format in all cases: cell-based
SCC-25 cells = assay: [3H]-thymidine proliferation assay with SCC-25 cells; settings: together with calcitriol, three days, [3H]-thymidine 6 h
Experimental: 1. Preparation of Cell Suspension • When SCC-25 cells were 70-80% confluent, aspirated media. Washed the cells with 1×PBS. Trypsinized with trypsin-EDTA from the plate, collected cells from the tissue culture flask, centrifuged (500×g, 5 min) and resuspended in media.
2. Cell Plating. • Counted the cells and adjusted the cell density to 10,000/ml. Added 200 μl per well in a 96 well plate. Incubated plate for 24 h at 37° C. in a humidified atmosphere plus 5% CO2. Aspirated used media and replaced with 150 μl per well with media.
3. Compound Addition. • Added 25 μl of 1α,25(OH)2D3 (final concentration 10^−6M, 10^−7 M, 10^−8 M, M, 10^−10 M, 10^−11 M) into each designated well. Added 25 μl of substrate (final concentration 10^−7 M, 5×10^−8 M, 10^−8 M or 10^−9 M) into each designated well. Incubated plates for 3 days at 37° C. in a humidified atmosphere plus 5% CO2.
4. ^3H-Thymidine Incorporation. • Added ^3H-thymidine at 0.02 μCi per well and incubated at 37° C. in a humidified atmosphere plus 5% CO2 for 6 h.
(§1) 5. Plate Harvesting. • Aspirated all media and washed cells with 1×PBS. Trypsinized cells for 30 min at 37° C. in a humidified atmosphere plus 5% CO2. Harvested cells onto a 96 well filter plate (Millipore) using a Tomtec Cell Harvestor, according to manufacturers instructions.
(§2) 6. Scintillation Counting. • Added 25 μl of scintillation fluid per well. Counted the plate using a scintillation counter.

CYP24 [1] = molecular target: T1, CYP24 (Homo sapiens, UniProt Q07973); assay: CYP24 enzyme assay (stable cell line V79-CYP24 cells); settings: [3H-1β]-1α,25(OH)2D3 20 nM, 2 hours
T1 construct: expressed in transfected cells
T1 sequence (Q07973 36-514): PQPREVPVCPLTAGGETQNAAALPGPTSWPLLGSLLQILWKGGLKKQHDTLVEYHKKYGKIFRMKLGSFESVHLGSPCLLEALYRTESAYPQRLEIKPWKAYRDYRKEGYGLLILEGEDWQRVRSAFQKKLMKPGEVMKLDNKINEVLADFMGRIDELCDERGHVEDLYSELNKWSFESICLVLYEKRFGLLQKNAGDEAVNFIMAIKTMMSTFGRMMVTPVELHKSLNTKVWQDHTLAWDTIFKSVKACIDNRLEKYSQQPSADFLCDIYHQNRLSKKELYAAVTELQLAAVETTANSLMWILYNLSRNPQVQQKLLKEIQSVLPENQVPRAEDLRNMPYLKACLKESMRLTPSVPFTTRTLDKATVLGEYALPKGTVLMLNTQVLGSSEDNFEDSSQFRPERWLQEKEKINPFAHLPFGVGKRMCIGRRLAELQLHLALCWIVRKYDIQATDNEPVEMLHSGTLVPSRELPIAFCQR
Experimental: 1. Preparation of Cell Suspension • On the day of the assay, washed the monolayer of V79-CYP24 cells once with 1×PBS buffer and then trypsinize for 5 min at room temperature (approx. 22° C.). Added 1×PBS. Collected cells into tube, centrifuged cells (500×g, 5 min) and resuspended in DMEM+1% BSA media.
2. Cell Plating • Added 150 μl of cell suspension to appropriately labelled wells of a 48-well plate. Incubated plate for 30 minutes at 37° C. in a humidified atmosphere containing 5% CO2 for adherence of cells to wells.
3. Compound Addition • Added 25 μl of inhibitor (10^−6 to 10^−9 M) and then after 10 min added 25 μl of substrate [^3H-1β]-1α,25(OH)2D3 (20 nM) for 2 hours at 37° C. in a humidified atmosphere containing 5% CO2. Both inhibitor and substrate were prepared in DMEM with 1% BSA media in the absence and presence of 100 μM DPPD.
4. Lipid Extraction and Counting • Added 500 μL of methanol to stop the reaction. Transferred to tube. Added 250 μl of dichloromethane and vortexed. Added 250 μl of dichloromethane and 250 μl of saturated KCL and vortexed. Centrifuged at 4000 rpm for 5 min. Triplicate 100 μl aliquots of aqueous fraction were mixed with 600 μl of scintillation fluid and the radioactivity was measured using a scintillation counter. All values were normalized for background. (iii) Results.

CYP24 [2] = molecular target: T1, CYP24; assay: In vitro test of ability to inhibit specifically CYP24 (standard protocol); settings: ketoconazole as control standard
[3] = tested on: normal human epidermal keratinocytes (NHEK); assay: Human epidermal keratinocyte proliferation assay; settings: together with calcitriol, three days, [3H]-thymidine 18 h
Experimental: 1. HEK Cell Media • Supplemented KGM media with additional reagents provided in the bullet kit as per supplier's instructions. • Added calcium chloride to final concentration of 0.3 mM.
2. Calcitriol Dilutions • Stock: Calcitriol (1 mM)
3. Substrate Dilutions • Stock: substrate (0.1 mM)
1. Cell Culture • Thawed one vial of HEK cells containing at least 500 K, and divided into 5 25 cm^2 flasks with 5 ml HEK cell media. 24 h later, removed media and replenished with 5 ml fresh media. Changed media again 48 h later.
2. Preparation of Cell Suspension • On the day of the assay, washed the monolayer of HEK cells once with 1×PBS buffer (provided in reagent pack) and then trypsinized for 5 min at 37° C. Added trypsin neutralizing solution (provided in reagent pack). Collected cells into tube, centrifuged cells (500×g, 5 min) and resuspended in HEK cell media. Counted cells and adjusted density to 150,000 cells/ml. Diluted cells further 1:30 with HEK cell media.
2. Cell Plating • Added 150 μl of cell suspension to appropriately labelled wells of a 96-well plate. Incubated plate for 48 h at 37° C. in a humidified atmosphere containing 5% CO2 for adherence of cells to wells.
3. […]
4. Cell Harvesting and Counting • Added 0.2 μCi/well of [^3H]-thymidine in 20 μl of HEK cell media to each well. Incubated plates for 18 h at 37° C. in a humidified atmosphere containing 5% CO2. Aspirated media and washed with 1×PBS. Trypsinize-cells for 30 min at 37° C. in a humidified atmosphere containing 5% CO2. Harvested cells onto filter plates using Tomtec cell harvester as per manufacturer's instructions. Added 25 μl scintillation fluid per well. Measured radioactivity using a scintillation counter. All values were normalized for background.

MCF-7 cells = assay: [3H]-thymidine proliferation assay with MCF-7 cells; settings: together with calcitriol, three days, [3H]-thymidine 6 h
Experimental: 1. Preparation of Cell Suspension • When MCF-7 cells were 70-80% confluent, aspirated growth media. Washed the cells with 1×PBS. Trypsinized with trypsin-EDTA from the plate, collected cells from the tissue culture flask, centrifuged (500×g, 5 min) and resuspended in growth media.
2. Cell Plating. • Counted the cells and adjusted the cell density to 25,000/ml. Added 200 μl per well in a 96 well plate. Incubated plate for 24 h at 37° C. in a humidified atmosphere plus 5% CO2. Aspirated used media and replaced with 150 μl per well with proliferation media.
3. Substrate Addition. • Added 25 μl of 1α,25(OH)2D3 (final concentration 10^−6 M, 10^−7 M, 10^−8 M, 10^−9 M, 10^−10 M, 10^−11 M) into each designated well. Added 25 μl of substrate (final concentration 10^−7 M, 5×10^−8 M, 10^−8 M or 10^−9 M) into each designated well. Incubated plates for 3 days at 37° C. in a humidified atmosphere plus 5% CO2.
4. ^3H-Thymidine incorporation. • Added ^3H-thymidine at 0.02 μCi per well and incubated at 37° C. in a humidified atmosphere plus 5% CO2 for 6 h.
as §1, §2

IC50 (CYP24 [1]) | selective inhibition of CYP24 (CYP24 [2]) | Compound | inhibition of proliferation of SCC-25 cells (SCC-25 cells) | inhibition of proliferation of normal human epidermal keratinocytes (NHEK) [3] | inhibition of proliferation of MCF-7 cells (MCF-7 cells)
27 nM | selectively inhibit | C[C@H](CCS(=N)(=O)c1ccccc1)[C@H]1CC[C@H]2/C(=C/C=C3C[C@@H](O)C[C@H](O)C3)CCC[C@]12C (single isomer, unassigned) [I(j), 24 Phenyl Sulfoximine 19-Nor-Vitamin-D3] | act to inhibit the proliferation |  | 
42 nM | selectively inhibit | CN=S(=O)(CC[C@@H](C)[C@H]1CC[C@H]2/C(=C/C=C3C[C@@H](O)C[C@H](O)C3)CCC[C@]12C)c1ccccc1 (single isomer, unassigned) [I(l), 24-Phenyl N-Methyl Sulfoximine 19-Nor-Vitamin-D3] | act to inhibit the proliferation |  | 
23 nM | selectively inhibit | C=C1/C(=C\C=C2/CCC[C@]3(C)[C@@H]([C@H](C)CC4(S(=N)(=O)c5ccccc5)CC4)CC[C@@H]23)C[C@@H](O)C[C@@H]1O (single isomer, unassigned) [I(n)] | act to inhibit the proliferation | act to inhibit the proliferation | act to inhibit the proliferation
20 nM | selectively inhibit | C=C1/C(=C\C=C2/CCC[C@]3(C)[C@@H]([C@H](C)CC4(S(=N)(=O)c5ccccc5)CC4)CC[C@@H]23)C[C@@H](O)C[C@@H]1O (single isomer, unassigned) [I(o)] | act to inhibit the proliferation | act to inhibit the proliferation | 
42 nM | selectively inhibit | C=C1/C(=C\C=C2/CCC[C@]3(C)[C@@H]([C@H](C)CCS(=N)(=O)c4ccc(F)cc4)CC[C@@H]23)C[C@@H](O)C[C@@H]1O (single isomer, unassigned) [I(p)] |  |  | 
78 nM | selectively inhibit | C=C1/C(=C\C=C2/CCC[C@]3(C)[C@@H]([C@H](C)CCS(=N)(=O)c4ccc(F)cc4)CC[C@@H]23)C[C@@H](O)C[C@@H]1O (single isomer, unassigned) [I(q)] |  |  | 
 | selectively inhibit | C=C1/C(=C\C=C2/CCC[C@]3(C)[C@@H]([C@H](C)/C=C/S(=N)(=O)c4ccccc4)CC[C@@H]23)C[C@@H](O)C[C@@H]1O (stereo partly shown) [I(r)] |  |  | 
580 nM | selectively inhibit | C=C1/C(=C\C=C2/CCC[C@]3(C)[C@@H]([C@@H](C)/C=C/S(=N)(=O)c4ccccc4)CC[C@@H]23)C[C@@H](O)C[C@@H]1O (stereo partly shown) [I(s)] |  |  | 
